Read-outs that look alike come from different tables or passages of the source.
What was measured:
[1] = tested on: diabetic preclinical models; conditions: compared with pioglitazone, literature; cited from earlier work
CYP3A4 = test: CYP induction in cryopreserved human hepatocytes; format: in vitro ADME; conditions: 10 μM, similar assay
[2] = cited from earlier work; for AUC0-∞ mean: healthy subjects, single oral dose 45 mg
2C8 = biological target: T1, 2C8 (Homo sapiens, UniProt P10632); conditions: Sahi et al.; cited from earlier work
T1 sequence (P10632 1-490): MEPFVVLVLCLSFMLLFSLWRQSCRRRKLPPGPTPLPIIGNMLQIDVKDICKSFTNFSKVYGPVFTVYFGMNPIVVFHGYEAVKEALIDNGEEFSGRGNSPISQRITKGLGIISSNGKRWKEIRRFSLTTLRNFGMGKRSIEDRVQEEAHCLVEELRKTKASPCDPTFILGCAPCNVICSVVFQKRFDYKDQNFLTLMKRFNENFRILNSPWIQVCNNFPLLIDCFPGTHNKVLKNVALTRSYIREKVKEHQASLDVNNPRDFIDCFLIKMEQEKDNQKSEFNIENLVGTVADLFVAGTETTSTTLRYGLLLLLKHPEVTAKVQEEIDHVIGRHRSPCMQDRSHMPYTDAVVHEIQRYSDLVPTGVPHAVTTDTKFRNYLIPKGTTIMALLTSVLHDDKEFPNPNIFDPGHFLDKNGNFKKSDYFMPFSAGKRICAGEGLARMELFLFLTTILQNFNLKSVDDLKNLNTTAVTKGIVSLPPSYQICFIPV

bladder urothelium = test: Bladder epithelium hyperplasia in rat tissue; format: in vivo; conditions: treated rats; pioglitazone 14.5 and 145 mg/Kg/day, MIN-102 25, 100 and 150 mg/Kg/day
CYP2B6 = test: CYP induction in cryopreserved human hepatocytes; format: in vitro ADME; conditions: 50 μM, similar assay
[3] = Eckland et al., Christensen et al.

Row | SMILES | pharmacological activity [1] | induction in CYP3A4 (CYP3A4) [fold] | range in exposure (AUC) [2, 3] | variability (CV %) in clearance [2, 3] | AUC0-∞ mean ([2]; study a) [µg·h/mL] | AUC0-∞ mean ([2]; study b) [µg·h/mL] | AUC0-∞ mean ([2]; study c) [µg·h/mL] | IC50 (2C8) [µM] | Ki (2C8) [µM] | bladder epithelium hyperplasia (bladder urothelium) | induction in CYPB6 (CYP2B6) [fold]
1 | CC(O)c1ccc(CCOc2ccc(CC3SC(=O)NC3=O)cc2)nc1 (stereo not drawn) [(1), 5-[[4-[2-[5-(1-hydroxyethyl)pyridin-2-yl]ethoxy]phenyl]methyl]-1,3-thiazolidine-2,4-dione] | less active than pioglitazone |  |  |  |  |  |  |  |  |  | 
2 | CC(=O)c1ccc(CCOc2ccc(CC3SC(=O)NC3=O)cc2)nc1 (stereo not drawn) [M-III, reference compound] | less active than pioglitazone |  |  |  |  |  |  |  |  |  | 
3 | CCc1ccc(CCOc2ccc(CC3SC(=O)NC3=O)cc2)nc1 (stereo not drawn) [pioglitazone] |  | 4.79 | up to 10 fold | 40%-50% | 13.854 | 14.458 | 14.071 | 9.38 | 1.69 | only observed in the pioglitazone group | 2.35

— patent publication US11938122B2, “5-[[4-[2-[5-(1-hydroxyethyl)pyridin-2-yl]ethoxy]phenyl]methyl]-1,3- thiazolidine-2,4-dione for treating nonalcoholic fatty liver disease” (Minoryx Therapeutics S.L., priority 2016, dated 2024)
